Here are results for five compounds from paper PMC12216609, “Inhibitors of eIF1A-ribosome interaction unveil uORF-dependent regulation of translation initiation and antitumor and antiviral effects” (The EMBO Journal, 2025).

“And” between values parts separate entries of the source, which are not always exact repeats. Equal entries are not always repeated.

Usually IC50 stands for the concentration that gives 50% inhibition.

The test system of assay [1] is uORF-bearing 5'UTR firefly reporters in HEK293T cells. The assay is described as follows: uORF reinitiation / leaky scanning firefly reporters. The settings on record: for 95nt from uORF to main ORF experiment, minus 95nt, average (DMSO = 1): minus 95nt reporter; for averages of FF vs RL / FF vs RL / averages of FF vs RL 2 / FF vs RL 2: 95nt experiment; for averages of FF vs RL 2 / FF vs RL 2: block FF-2 (c113).
From the text: (M) The reference and uORF-bearing reporters were transfected to HEK293T cells together with RL, which served to normalize translation efficiency. The reporter activities are represented as firefly vs RL; n ≥3 independent biological replicates, error bars represent SEM. *P < 0.05, **P < 0.01, Student t test. (N) Firefly Reporters (J) were transfected to HEK293T cells together with normalizing RL. […] Results are represented as firefly vs. RL normalized to DMSO in each biological replicate; n = 4, error bars represent SEM. *P < 0.05, **P < 0.01, Student t test.
In the first and second, we inserted an out-of-frame uAUG 46 or 95 nucleotides before the main ORF, respectively, followed by a downstream stop codon generating an uORF of 10 amino acids. In these constructs, the translation from the main ORF could be either by reinitiation or leaky scanning. In the third construct, this out of frame uAUG lacks a stop codon, causing initiation from the main ORF to exclusively occur via leaky scanning (Fig. 4L). These reporters were transfected into HEK293T cells together with RL luciferase reporter for normalizing transfection efficiency. […] We next examined these reporters in the presence of 1Ais.

Another assay deals with T1, eIF1A-RPS10 interaction (Homo sapiens, UniProt P46783+P47813).
T1 construct: made in house; host or cells: E. coli BL21 (PRSFduet); unpurified lysate supernatant
T1 sequence (P47813 whole entry, one chain of several): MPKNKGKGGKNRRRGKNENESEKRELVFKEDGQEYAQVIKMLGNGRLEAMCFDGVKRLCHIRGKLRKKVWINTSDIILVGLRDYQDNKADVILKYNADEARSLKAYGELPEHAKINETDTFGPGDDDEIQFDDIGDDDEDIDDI
Put plainly: Split-Renilla luciferase eIF1A-RPS10 interaction screen, dose-response. Type of assay: biochemical. The settings on record: Appendix Table S1; read-out: IC50 from the split RL screen. The protocol:
While knockdown (KD) studies of eIF1A provided valuable insights into its role in mammalian cell translation (Sehrawat et al, [2019]), this approach presents several limitations. First, it fails to elucidate the functional significance of the opposing functions of eIF1A N- and C-terminal tails with respect to scanning and start codon fidelity. Second, the extended duration required for achieving efficient knockdown, 48–72 h, impairs our ability to differentiate between direct and indirect effects. To overcome these constraints, we set out to develop small-molecule inhibitors targeting eIF1A. Guided by structural and biochemical studies showing eIF1A binding to the small ribosomal subunit at the A-site and interacting directly with RPS10 through its N-terminal tail (Haimov et al, [2017]; Passmore et al, [2007]; Sehrawat et al, [2019]), our approach focused on disrupting the interaction between eIF1A and RPS10. […] The interaction between eIF1A and RPS10 brings the two parts together, leading to the reconstitution of the enzymatic activity (Haimov et al, [2017]). In this system, the spatial arrangement of the two RL parts is critical for the enzymatic activity, making it sensitive not only to direct interference with the interacting proteins but also to changes in the conformation of the fused proteins. In the eIF1A-RPS10 split-RL pair, the C-terminus of eIF1A is fused to N-RL (Fig. 1A), in order to maintain the NTT accessible to RPS10 binding. This pair was cloned and expressed in bacteria as recombinant proteins and used to screen a library of ~50,000 small molecules from diverse sources (Ashkenazi et al, [2017]).
eIF1A-ΔC-Renilla and RPS10-ΔN-Renilla were transformed into BL21 E. coli by heat shock transformation. A bacterial starter of 5 ml LB was incubated overnight at 37 °C and transferred into 1 L LB for incubation at 37 °C until OD ~ 0.5–0.7. Next, protein expression was induced with 0.5 mM IPTG, and bacterial cells were incubated overnight at 16 °C. Bacterial cell pellet was collected after centrifugation (3000 RPM, 15 min), resuspended in 20 ml TKE buffer (Tris 10 mM, KCl 100 mM, EDTA 0.1 mM), sonicated (bath sonicator, 24 cycles of 30 s) and centrifuged again (15000 RPM, 30 min). Supernatants were collected, analyzed for RL activity, and then used for high throughput drug screen (HTS) at the Weizmann G-INCPM HTS unit as described (Ashkenazi et al, [2017]). In addition to the standard controls of this protocol, the two parts of the split RL, without eIF1A or RPS10, were tested as controls. Selected compounds were purchased from Sigma-Aldrich and Enamine. Compound powders were resuspended in DMSO for a final concentration of 10 mM and stored at −20 °C.

Assay [2] concerns CUG/GUG vs AUG start codon luciferase reporters in HEK293T cells. Put plainly: Near-cognate AUG starting codon fidelity reporter assay (GUG, CUG vs AUG). Particulars: for CUG vs AUG (%): CUG start codon reporter relative to AUG reporter (AUG = 100); for CUG vs AUG (%) / GUG vs AUG (%): single-experiment calculation; for GUG vs AUG (%): GUG start codon reporter relative to AUG reporter (AUG = 100). In kind it is cell-based. The protocol:
We next considered the importance of eIF1A in controlling start codon fidelity in yeast and mammalian cells (Martin-Marcos et al, [2011]; Martin-Marcos et al, [2017]; Sehrawat et al, [2019]; She et al, [2023]) and tested how inhibition of eIF1A by 1Ais affects the initiation from near-cognate AUG. The effect of 1Ais was analyzed using firefly luciferase reporters bearing either AUG (control), CUG, or GUG as the exclusive translation initiation sites. Co-transfected GFP reporter served as an internal control for transfection efficiency.
For the near-cognate AUG Starting codon fidelity reporter assay, HEK293T cells were transfected with 100 ng of the previously described luciferase reporter constructs driven either by AUG, CUG, and GUG (Tang et al, [2017]) together with GFP expressing plasmid (20 ng) as normalizing control. Luciferase and GFP levels were determined as described above.
Appendix Figure S1: (A) HEK293T cells were transfected with Luciferase reporter genes with either CUG or AUG as their exclusive starting codon. 6 hours after transfection, cells were exposed to 1Ais, and the luminescence from all constructs was measured after overnight incubation. Bars represent the ratio between luminescence from the AUG starting codon and CUG after normalization with co-transfected GFP; Error bars represent SEM, * denotes p<0.05 (T-test comparing to DMSO control), n=≥4 independent biological replicates.

For assay [3], the system named is IRF7 5'UTR firefly luciferase reporter in HEK293T cells.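 Note: luciferase signal corrected by a co-transfected GFP reporter for transfection efficiency, read after overnight compound exposure, with Long and Short reporters differing in 5'UTR length.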
The mark [4] stands for this setting: compound at 20uM (summary head).

Take `O=C(COc1ccccc1[N+](=O)[O-])NCc1ccc(-c2ccc(Br)cc2)o1` [1A-4700]: the “firefly/Renilla normalized to DMSO, minus46 reporter” value in assay [1] (95nt from uORF to main ORF experiment summary, experiment 240919, reporter minus46, DMSO = 1) is 0.3368 and 0.3707. For the same compound, in assay [1] (95nt from uORF to main ORF experiment summary, experiment 240919, reporter minus 95nt, DMSO = 1), the “firefly/Renilla normalized to DMSO, minus 95nt reporter” value is 1.123 and 1.106. Further, the “firefly/Renilla normalized to DMSO, ref reporter” value in assay [1] (95nt from uORF to main ORF experiment summary, experiment 240919, reporter ref, DMSO = 1) is 0.8256 and 0.6094. Further, the “95nt from uORF to main ORF experiment, minus46, average (DMSO = 1)” value in assay [1] (minus46 reporter) worked out at 0.3537. In assay [1], the “95nt from uORF to main ORF experiment, minus 95nt, average (DMSO = 1)” value came to 1.115. Besides, in assay [1] (ref reporter), the “95nt from uORF to main ORF experiment, ref, average (DMSO = 1)” value is on record as 0.7175.
For `O=C1c2ccccc2NC(c2cc(O)c(O)c(Cl)c2)N1c1ccccc1` (centres unmarked) [1A-8214], the “averages of FF vs RL” value in assay [1] (block FF-1 (c104), reporter minus46, DMSO 0.0248618) is given as 0.02612; in assay [1] (block FF-1 (c104), reporter minus 95, DMSO 0.0251627), 0.01437; in assay [1] (block FF-1 (c104), reporter ref, DMSO 0.0298915), 0.04961; in assay [1] (block FF-1 (c131), reporter minus46, DMSO 0.180889) it was 0.2096; in assay [1] (block FF-1 (c131), reporter minus 95, DMSO 0.459566), 0.4822; in assay [1] (block FF-1 (c131), reporter ref, DMSO 0.345569), 0.2779. Moreover, the “FF vs RL” value in assay [1] (block FF-1 (c104), reporter minus 46, DMSO 2.74E-02, 2.23E-02) is 2.94E-02 and 2.28E-02; in assay [1] (block FF-1 (c104), reporter minus 46 plus 50, DMSO 2.94E-02, 2.09E-02), 1.20E-02 and 1.67E-02; in assay [1] (block FF-1 (c104), reporter reference, DMSO 2.79E-02, 3.19E-02), 6.51E-02 and 3.41E-02; in assay [1] (block FF-1 (c131), reporter minus 46, DMSO 0.17626, 0.185518), 0.2074 and 0.2118; in assay [1] (block FF-1 (c131), reporter minus 46 plus 50, DMSO 0.437858, 0.481275) it was 0.464 and 0.5005; in assay [1] (block FF-1 (c131), reporter reference, DMSO 0.39984, 0.291299), 0.281 and 0.2748. In addition, the “averages of FF vs RL 2” value in assay [1] (reporter minus46, DMSO 0.0506669) is given as 0.04195; in assay [1] (reporter minus 95, DMSO 0.0221428) it was 0.01783; in assay [1] (reporter ref, DMSO 0.0383109), 0.05624. Further, the “FF vs RL 2” value was 4.79E-02 and 3.60E-02 in assay [1] (reporter minus 46, DMSO 3.43E-02, 5.07E-02); 1.96E-02 and 1.61E-02 in assay [1] (reporter minus 46 plus 50, DMSO 3.05E-02, 1.38E-02); 6.80E-02 and 4.45E-02 in assay [1] (reporter reference, DMSO 3.69E-02, 3.97E-02). The “reporter activity norm to DMSO, minus46” value in assay [1] (minus46 reporter, 95nt from uORF to main ORF experiment, Figure 4N source data, replicate experiments, DMSO = 1) is 0.8043 and 1.051 and 0.8279. In addition, the “95nt from uORF to main ORF experiment, minus46, average (DMSO = 1)” value in assay [1] (minus46 reporter) is given as 0.8942. For the same compound, the “reporter activity norm to DMSO, minus 95” value in assay [1] (minus 95 (nt) reporter, 95nt from uORF to main ORF experiment, Figure 4N source data, replicate experiments, DMSO = 1) is 1.049 and 0.5709 and 0.8051. Besides, the “95nt from uORF to main ORF experiment, minus 95nt, average (DMSO = 1)” value in assay [1] turned out to be 0.8085. Moreover, the “reporter activity norm to DMSO, ref” value in assay [1] (ref reporter, 95nt from uORF to main ORF experiment, Figure 4N source data, replicate experiments, DMSO = 1) is 1.159 and 1.66 and 1.468. Further, the “95nt from uORF to main ORF experiment, ref, average (DMSO = 1)” value in assay [1] (ref reporter) is listed as 1.429.
Turning to `CNc1nc(-c2cc(C)n(C)c2C)cs1` [1Ai-0153], on eIF1A-RPS10 interaction, the IC50 turned out to be 27 µM. Also, the “GUG vs AUG data (%)” value in assay [2] (compound at 20uM, individual repeat) is 1.78% and 1.33% and 1.95% and 1.92%. For the same compound, the “GUG vs AUG (%) Average” value in assay [2] (compound at 20uM, summary average of repeats, DMSO control average […]) is on record as 1.74%. For the same compound, in assay [3] (Long reporter, 20 µM, individual replicates, outliers excluded, DMSO = 1), the “LONG (summary - All), normalized to DMSO” value was 0.73 and 0.87 and 1.53 and 0.96 and 1.14. In assay [3] (Short reporter, 20 µM, individual replicates, outliers excluded, DMSO = 1), the “SHORT (summary - All), normalized to DMSO” value was 0.72 and 0.98 and 1.54 and 1.66 and 1.69 and 1.65. Further, in assay [3] (compound at 20 µM, left data block (Long), source data of Fig 1C), the “Long 5'UTR reporter luciferase activity, normalized to DMSO (=1), single replicates” value was 0.734 and 0.8747 and 1.529 and 0.9608 and 2.673 and 1.141. Also, the “average ( long vs short ratio)” value in assay [3] (summary - All, 20 µM) came out at 0.762.
For `CNc1nc(-c2cc(C)n(C)c2C)cs1` [compound 153], in assay [2] (setting [4]), the “CUG vs AUG (%)” value is recorded as 5.937% and the “GUG vs AUG (%)” value is given as 1.586%.
As to `O=C(Nc1nc(-c2c[nH]c3ccccc23)cs1)c1cc(=O)[nH]c2ccccc12` [compound 403], in assay [2] (compound at 5uM (summary head)), the “CUG vs AUG (%)” value is reported as 8.469% and the “GUG vs AUG (%)” value is reported as 1.79%.
